Test results reported in patent US20230145406A1, “DIVALENT METAL-CONTAINING BIOMATERIALS AND METHODS OF USE” (University of Oregon, priority 2021, published 2023).

Test: Precipitation in filtered concentrated cupric dilactate solution
Format: physicochemical
Settings: cupric dilactate in water, sonicated, overnight 37° C., 0.45 μm filtered; over 3 weeks
Experimental: Increased concentrations of cupric dilactate were prepared for use in polymers to achieve higher loading. Excess of cupric dilactate in water (5 g in 10 ml) was prepared and sonicated for 30-120 minutes (15 minutes each x 2-8 times with 10 minutes break between each sonication session) and left overnight at 37° C. The solution obtained was cooled to room temperature and the green liquid containing cupric dilactate was separated from the undissolved cupric dilactate by aspiration and filtering through 0.45 μm syringe filter. […] This solution can be used for loading plugs, for example as described in Examples 1-3.

CC(O)C(=O)[O-].CC(O)C(=O)[O-].[Cu+2] (stereo not shown) [cupric dilactate]
precipitate in the filtrate: No precipitate was observed
